Like-named read-outs stand apart in the source and are kept apart here.
How the values were obtained:
15-PGDH enzyme = 15-PGDH enzyme (Homo sapiens (Human), UniProt P15428); test: Detection of activity of 15-PGDH (enzyme inhibition, NADH fluorescence, PGF2α/β-NAD substrates); assay type: biochemical
Protocol: Test Example 1: Detection of Activity of 15-PGDH Kinase
• a. A solution of pH 7.5 containing 50 mM Tris-HCl, 0.01% Tween 20 was prepared with ultrapure water as a reaction buffer; • b. A 10 mM mother liquor of the compound to be tested was prepared with DMSO, and then the reaction buffer was used to dilute the mother liquor of the compound to be tested to obtain solution 1 of the compound to be tested at a concentration of 40,000 nM, and then the solution 1 of the compound to be tested was serially diluted into solutions 2-9 (or 2-12) of the compound to be tested at 9 (or 11) concentrations with a gradient difference of three-fold. 5 μL of each concentration of solutions of the compound to be tested was respectively taken and added into a 384-well plate as test wells; • c. 5 μL of the reaction buffer was added to the blank wells of the 384-well plate as positive control and blank control wells, respectively; • d. The reaction buffer was used to prepare a 15-PGDH protein solution at a concentration of 5 ng/μL, 5 μL of the 15-PGDH protein solution was taken and added to the test wells and positive control wells, and meanwhile 5 μL of the reaction buffer was added to the blank control wells, then the plate was centrifuged at 2000 rpm for 30 seconds; • e. The reaction buffer was used to prepare 5 mM β-NAD and 2 mM PGF2α, respectively, which were mixed at 1:1 by volume to obtain a substrate mixture, 10 μL of the substrate mixture was taken and added to the test wells, positive control wells and blank control wells to start the reaction; • f. The fluorescence signal value (Ex/Em=340/450) of each well was detected continuously by using a multifunctional microplate reader.
• a) Continuous fluorescence signal values were analyzed by using the “kinetic calculations-slope calculation method” in the PHERAstar Data analysis software to obtain the slope of each test well; • b) The inhibition rate % was calculated by using the following formula:
[formula] • c) Calculation of IC50 and plotting of inhibition rate-dose curves: IC50 values were calculated by fitting compound concentrations and corresponding inhibition rates with a nonlinear regression (dose response-variable slope) via using GraphPad Prism 6.0. The formula was shown below:
Y=Bottom+(Top−Bottom)/(1+10^((Log IC50−X)*HillSlope)), wherein X is a log value of a concentration of the compound, and Y is inhibition rate %.

A549 cells = test: Assay of intracellular PGE2 up-regulatory activity in IL-1β-stimulated A549 cells; assay type: cell-based; settings: IL-1β induced, 8 h
Protocol: Test Example 2: Assay of Intracellular PGE2 Up-Regulatory Activity
a) A549 cells were inoculated in the 24-well plate, and after cell adhesion, IL-1β was added thereto for 16 h of stimulation to induce COX2 expression and PGE2 production. b) A solution of the compound to be tested was prepared with the culture medium and gradiently diluted to 3 concentrations of 10 nM, 300 nM and 10,000 nM or 7 concentrations of 0.64 nM, 3.2 nM, 16 nM, 80 nM, 400 nM, 2000 nM and 10,000 nM, and meanwhile the positive control group (only IL-1β was added to the cells for induction) and negative control group (only cells were added in the wells without any treatment) were set up. The cell supernatants were collected after 8 h of action, in which the positive control group was induced by IL-1β without treatment of the compounds, and the negative control group was neither stimulated by IL-1β, nor treated with the compounds. c) The PGE2 content of the samples was determined by Prostaglandin E2 Kit, and the fluorescence signal was detected by a multifunctional microplate reader (Ex/Em=337/620, 337/665).
a) A standard curve was plotted with the PGE2 standard in the Prostaglandin E2 Kit, and the PGE2 concentration was calculated by substituting with the fluorescence signal of the sample. b) The PGE2 up-regulation rate % was calculated by using the following formula: […]

[1] = inhibitory activity against 15-PGDH enzyme, class symbols, read-out: IC50

Chain of 15-PGDH enzyme (P15428 whole entry): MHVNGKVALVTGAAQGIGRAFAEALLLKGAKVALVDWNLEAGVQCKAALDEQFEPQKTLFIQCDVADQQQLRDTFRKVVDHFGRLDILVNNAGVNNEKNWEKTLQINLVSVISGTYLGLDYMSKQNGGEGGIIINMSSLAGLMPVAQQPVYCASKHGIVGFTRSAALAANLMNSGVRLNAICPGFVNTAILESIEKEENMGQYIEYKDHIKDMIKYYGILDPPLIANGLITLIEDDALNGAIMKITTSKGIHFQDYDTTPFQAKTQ

| Structure (SMILES) | IC50 (15-PGDH enzyme; [1]) | further results |
| --- | --- | --- |
| Nc1c(C(=O)N2CCC(F)CC2)sc2nc(-c3ccccc3)n3ccnc3c12 [Example 1, (9-amino-5-phenylimidazo[1,2-c]thieno[3,2-e]pyrimidin-8-yl)(4-fluoropiperidin-1-yl)methanone] | < 3 nM | IC50 (15-PGDH enzyme; stated in text as bounds, read-out: IC50 value of the inhibitory activity against 15-PGDH enzyme): < 1.5 nM |
| Nc1c(C(=O)N2CCC(F)CC2)sc2c1C1=NCCN1C(c1ccccc1)=N2 [Compound 8, (9-amino-5-phenyl-2,3-dihydroimidazo[1,2-c]thieno[3,2-e]pyrimidin-8-yl)(4-fluoropiperidin-1-yl)methanone] | 10 to 25 nM | – |
| Nc1c(C(=O)N2CCCCC2)sc2nc(-c3ccccn3)n3ccnc3c12 [Example 10] | 3 to 10 nM | – |
| O=C(c1sc2nc(-c3ccccc3)n3ccnc3c2c1I)N1CCCCC1 [Example 4, (9-iodo-5-phenylimidazo[1,2-c]thieno[3,2-e]pyrimidin-8-yl)(piperidin-1-yl)methanone] | < 3 nM | – |
| Nc1c(C(=O)N2CCCCC2)sc2nc(-c3cnccn3)n3ccnc3c12 [Example 21] | < 3 nM | PGE2 up-regulation rate (A549 cells; compound 400 nM): 321% |
| Nc1c(C(=O)N2CCCCC2)sc2nc(-c3nccs3)n3ccnc3c12 [Example 19] | 10 to 25 nM | – |
| COc1c(C(=O)N2CCCCC2)sc2nc(-c3ccccc3)n3ccnc3c12 [Example 6, (9-methoxy-5-phenylimidazo[1,2-c]thieno[3,2-e]pyrimidin-8-yl)(piperidin-1-yl)methanone] | 10 to 25 nM | – |
| Nc1c(C(=O)N2CCCCC2)sc2nc(-c3ccccc3)n3ccnc3c12 [Example 7] | < 3 nM | – |
| Nc1c(C(=O)N2CCC(F)CC2)sc2nc(-c3ccccc3)n3cc(C(F)(F)F)nc3c12 [Example 2, (9-amino-5-phenyl-2-(trifluoromethyl)imidazo[1,2-c]thieno[3,2-e]pyrimidin-8-yl)(4-fluoropiperidin-1-yl)methanone] | 3 to 10 nM | – |
| O=C(c1sc2nc(-c3ccccc3)n3ccnc3c2c1C(F)(F)F)N1CCCCC1 [Example 12] | 3 to 10 nM | – |
| Cn1ccc2cc(-c3nc4sc(C(=O)N5CCCCC5)c(N)c4c4nccn34)ccc2c1=O [Example 25, 6-(9-amino-8-(piperidin-1-carbonyl)imidazo[1,2-c]thieno[3,2-e]pyrimidin-5-yl)-2-methylisoquinolin-1(2H)-one] | < 3 nM | PGE2 up-regulation rate (A549 cells; compound 3.2 nM): 513%; PGE2 up-regulation rate (A549 cells; compound 16 nM): 782%; PGE2 up-regulation rate (A549 cells; compound 80 nM): 741% |
| Cc1c(C(=O)N2CCCCC2)sc2nc(-c3ccccc3)n3ccnc3c12 [Example 13] | 3 to 10 nM | – |
| O=C(c1sc2nc(-c3ccccc3)n3ccnc3c2c1C1CC1)N1CCCCC1 [Example 14] | 3 to 10 nM | – |
| Nc1c(C(=O)N2CCCCC2)sc2nc(-c3ccccc3)n3cnnc3c12 [Example 5, (9-amino-5-phenylthieno[3,2-e][1,2,4]triazolo[4,3-c]pyrimidin-8-yl)(piperidin-1-yl)methanone] | 3 to 10 nM | – |
| CCN(CC)C(=O)c1sc2nc(-c3ccccc3)n3ccnc3c2c1N [Example 16] | 25 to 50 nM | – |
| CC(C)c1c(C(=O)N2CCCCC2)sc2nc(-c3ccccc3)n3ccnc3c12 [Example 23, (9-isopropyl-5-phenylimidazo[1,2-c]thieno[3,2-e]pyrimidin-8-yl)(piperidin-1-yl)methanone] | 3 to 10 nM | – |
| Nc1c(C(=O)N2CCCCC2)sc2nc(-c3cccnc3)n3ccnc3c12 [Example 15] | < 3 nM | – |
| O=C(c1cc2c(nc(-c3ccccc3)n3ccnc23)s1)N1CCCCC1 [Example 18] | 10 to 25 nM | – |
| Cc1cn2c(-c3ccccc3)nc3sc(C(=O)N4CCC(F)CC4)c(N)c3c2n1 [Example 9] | 3 to 10 nM | PGE2 up-regulation rate (A549 cells; compound 400 nM): 333% |
| Nc1c(C(=O)N2CCCCC2)sc2nc(-c3ccc4ccccc4n3)n3ccnc3c12 [Example 20] | 10 to 25 nM | – |
| Nc1c(C(=O)N2CCCCC2)sc2nc(-c3ccncc3)n3ccnc3c12 [Example 3, (9-amino-5-(pyridin-4-yl)imidazo[1,2-c]thieno[3,2-e]pyrimidin-8-yl)(piperidin-1-yl)methanone] | < 3 nM | – |
| N#Cc1c(C(=O)N2CCCCC2)sc2nc(-c3ccccc3)n3ccnc3c12 [Example 22] | 3 to 10 nM | – |
| CN1Cc2cc(-c3nc4sc(C(=O)N5CCCCC5)c(N)c4c4nccn34)ccc2C1=O [Example 24, 5-(9-amino-8-(piperidine-1-carbonyl)imidazo[1,2-c]thieno[3,2-e]pyrimidin-5-yl)-2-methylisoindol-1-one] | < 3 nM | PGE2 up-regulation rate (A549 cells; compound 3.2 nM): 568%; PGE2 up-regulation rate (A549 cells; compound 16 nM): 461%; PGE2 up-regulation rate (A549 cells; compound 80 nM): 473% |
| Nc1c(C(=O)N2CCC(F)(F)CC2)sc2nc(-c3ccccc3)n3ccnc3c12 [Example 8] | 3 to 10 nM | PGE2 up-regulation rate (A549 cells; compound 16 nM): 483%; PGE2 up-regulation rate (A549 cells; compound 80 nM): 520%; PGE2 up-regulation rate (A549 cells; compound 400 nM): 770% |
| Nc1c(C(=O)N2CCCC2)sc2nc(-c3ccccc3)n3ccnc3c12 [Example 17] | 25 to 50 nM | – |

From US20250250283A1, “COMPOUND CAPABLE OF REGULATING AND CONTROLLING ACTIVITY OF 15-PGDH, AND PREPARATION METHOD THEREFOR” (SCINNOHUB PHARMACEUTICAL CO., LTD., priority 2022, published 2025)
